In patent US20260209234A1, “SUBSTITUTED DIHYDROPYRROLO[3,4-D]PYRIMIDINE COMPOUNDS AND THEIR USE IN TREATING MEDICAL CONDITIONS” (Karuna Therapeutics, Inc., priority 2022, published 2026) one finds EC50 data, which are given here for 18 compounds.

A word on the EC50: it is the concentration giving half of the maximal effect. A higher EC50 goes with a less potent agent.

The target in one assay is T1, hM4 receptors (Homo sapiens, UniProt P08173).
T1 construct: expressed in transfected cells; host or cells: CHO cells
T1 sequence (P08173 1-479): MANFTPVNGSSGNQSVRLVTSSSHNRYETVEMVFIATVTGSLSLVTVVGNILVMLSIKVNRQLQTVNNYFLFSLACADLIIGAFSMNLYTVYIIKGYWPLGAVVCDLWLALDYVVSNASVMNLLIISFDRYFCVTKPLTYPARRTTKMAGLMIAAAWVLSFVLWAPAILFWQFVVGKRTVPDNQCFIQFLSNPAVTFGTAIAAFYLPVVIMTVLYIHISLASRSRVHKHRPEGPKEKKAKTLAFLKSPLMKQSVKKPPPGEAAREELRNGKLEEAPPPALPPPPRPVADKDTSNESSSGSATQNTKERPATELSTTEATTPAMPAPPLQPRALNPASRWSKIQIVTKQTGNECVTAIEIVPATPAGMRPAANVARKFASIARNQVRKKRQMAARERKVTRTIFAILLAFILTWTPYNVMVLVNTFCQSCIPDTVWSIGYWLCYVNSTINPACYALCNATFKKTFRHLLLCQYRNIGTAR
Description: Human M4 PAM pERK assay. It is filed as cell-based. The note with it: CHO cells expressing hM4; EC20 of acetylcholine (10 nM final); TR-FRET.

The target of the next assay is T2, rM4 receptors (Rattus norvegicus, UniProt P08485).
T2 construct: expressed in transfected cells; host or cells: CHO cells
T2 sequence (P08485 1-478): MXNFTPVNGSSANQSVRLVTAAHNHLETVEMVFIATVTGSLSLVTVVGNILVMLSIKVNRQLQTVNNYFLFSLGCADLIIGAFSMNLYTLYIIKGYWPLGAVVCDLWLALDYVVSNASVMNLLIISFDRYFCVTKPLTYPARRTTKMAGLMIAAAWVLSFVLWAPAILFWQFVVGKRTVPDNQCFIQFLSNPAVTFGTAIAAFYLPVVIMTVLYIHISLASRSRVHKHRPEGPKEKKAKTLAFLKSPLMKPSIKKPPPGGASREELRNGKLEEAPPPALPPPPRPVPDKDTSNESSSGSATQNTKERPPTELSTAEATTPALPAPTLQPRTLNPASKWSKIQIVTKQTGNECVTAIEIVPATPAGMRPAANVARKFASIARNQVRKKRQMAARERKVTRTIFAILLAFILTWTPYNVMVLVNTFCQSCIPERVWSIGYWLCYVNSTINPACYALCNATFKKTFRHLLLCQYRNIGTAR
Description: Rat M4 PAM pERK assay. It is filed as cell-based. The settings on record: CHO cells expressing rM4; EC20 of acetylcholine (10 nM final); TR-FRET.

The next assay deals with T3, human M4 receptor (Homo sapiens, UniProt P08173).
T3 construct: expressed in transfected cells
T3 sequence (P08173 1-479): T1 sequence (P08173 1-479)
Description: M4 GTPγS PAM assay. It is filed as biochemical. The note with it: membranes of CHO-K1 cells stably expressing human M4; EC20 acetylcholine 40 nM; 35S-GTP. In short, it runs like this:
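CHO-K1 membranes stably expressing human M4, preincubated with compound and 0.1 μM GDP (final) in 20 mM HEPES, 10 mM MgCl2, 100 mM NaCl, pH 7.4, then EC20 acetylcholine (40 nM final). 35S-GTPγS binding 1 h at room temperature, filtration and scintillation counting.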

With `COc1nc(C#N)nc2c1C(C)N(C(=O)CC1CN(c3cccc(C(F)(F)F)c3)C1)C2` (single isomer, unassigned) [Compound I-15, 4-Methoxy-5-methyl-6-(2-(1-(3-(trifluoromethyl)phenyl)azetidin-3-yl)acetyl)-6,7-dihydro-5H-pyrrolo[3,4-d]pyrimidine-2-carbonitrile], the EC50 at hM4 receptors, at rM4 receptors and at human M4 receptor was at least 2000 nM throughout.

Turning to `COc1nc(C#N)nc2c1C(C)N(C(=O)CC1CN(c3ccnc(C(F)(F)F)c3)C1C)C2` (single isomer, unassigned) [Compound I-37, 4-Methoxy-5-methyl-6-(2-(2-methyl-1-(2-(trifluoromethyl)pyridin-4-yl)azetidin-3-yl)acetyl)-6,7-dihydro-5H-pyrrolo[3,4-d]pyrimidine-2-carbonitrile], the EC50 was at most 100 nM at hM4 receptors, 100 to 500 nM at rM4 receptors and at most 100 nM on human M4 receptor.

As for `COc1nc(C#N)nc2c1C(C)N(C(=O)CC1CN(c3cccnc3)C1)C2` (single isomer, unassigned) [Compound I-7, 4-Methoxy-5-methyl-6-(2-(1-(pyridin-3-yl)azetidin-3-yl)acetyl)-6,7-dihydro-5H-pyrrolo[3,4-d]pyrimidine-2-carbonitrile], the EC50 on hM4 receptors, at rM4 receptors and at human M4 receptor was at least 2000 nM each time.

For `COc1nc(C)nc2c1C(C)N(C(=O)CC1CN(c3ccnc(C(F)(F)F)c3)C1)C2` (single isomer, unassigned) [Compound I-53, 1-(4-Methoxy-2,5-dimethyl-5,7-dihydro-6H-pyrrolo[3,4-d]pyrimidin-6-yl)-2-(1-(2-(trifluoromethyl)pyridin-4-yl)azetidin-3-yl)ethan-1-one], the EC50 at hM4 receptors, on rM4 receptors and at human M4 receptor was at least 2000 nM each time.

`COc1nc(C)nc2c1C(C)N(C(=O)CC1CN(c3ccc(C#N)cc3)C1)C2` (single isomer, unassigned) [Compound I-57, 4-(3-(2-(4-Methoxy-2,5-dimethyl-5,7-dihydro-6H-pyrrolo[3,4-d]pyrimidin-6-yl)-2-oxoethyl)azetidin-1-yl)benzonitrile]: the figures for the EC50 at hM4 receptors, on rM4 receptors and at human M4 receptor were at least 2000 nM, at least 2000 nM and 500 to 2000 nM, respectively.

On to `COc1nc(C#N)nc2c1C(C)N(C(=O)CC1CN(c3ccc(C4CC4)nc3)C1)C2` (single isomer, unassigned) [Compound I-33, 6-(2-(1-(6-Cyclopropylpyridin-3-yl)azetidin-3-yl)acetyl)-4-methoxy-5-methyl-6,7-dihydro-5H-pyrrolo[3,4-d]pyrimidine-2-carbonitrile], for which the EC50 on hM4 receptors is at most 100 nM; on rM4 receptors, 100 to 500 nM; on human M4 receptor it was 100 to 500 nM.

On to `COc1nc(C)nc2c1CN(C(=O)CC1CN(c3ccnc(C(F)(F)F)c3)C1)C2` [Compound I-43, 1-(4-Methoxy-2-methyl-5,7-dihydro-6H-pyrrolo[3,4-d]pyrimidin-6-yl)-2-(1-(2-(trifluoromethyl)pyridin-4-yl)azetidin-3-yl)ethan-1-one], for which the EC50 at hM4 receptors was in the range of 100 to 500 nM; on rM4 receptors, 500 to 2000 nM; on human M4 receptor it was 100 to 500 nM.

Take `COc1nc(C#N)nc2c1C(C)N(C(=O)CC1CN(c3ccc(C4CC4)c(F)c3)C1)C2` (single isomer, unassigned) [Compound I-22, 6-(2-(1-(4-Cyclopropyl-3-fluorophenyl)azetidin-3-yl)acetyl)-4-methoxy-5-methyl-6,7-dihydro-5H-pyrrolo[3,4-d]pyrimidine-2-carbonitrile]: the EC50 on hM4 receptors, at rM4 receptors and at human M4 receptor was 100 to 500 nM in each case.

In the case of `COc1nc(C)nc2c1C(C)N(C(=O)CC1CN(c3cncnc3)C1)C2` (single isomer, unassigned) [Compound I-60, 1-(4-Methoxy-2,5-dimethyl-5,7-dihydro-6H-pyrrolo[3,4-d]pyrimidin-6-yl)-2-(1-(pyrimidin-5-yl)azetidin-3-yl)ethan-1-one], the EC50 on hM4 receptors, at rM4 receptors and on human M4 receptor was at least 2000 nM each time.

Turning to `COc1nc(C#N)nc2c1C(C)N(C(=O)CC1CN(c3ccnc(C4CC4)c3)C1)C2` (single isomer, unassigned) [Compound I-11, 6-(2-(1-(2-Cyclopropylpyridin-4-yl)azetidin-3-yl)acetyl)-4-methoxy-5-methyl-6,7-dihydro-5H-pyrrolo[3,4-d]pyrimidine-2-carbonitrile], the EC50 on hM4 receptors, on rM4 receptors and on human M4 receptor was at least 2000 nM each time.

`COc1nc(C#N)nc2c1C(C)N(C(=O)CC1CN(c3cnnc(C(F)(F)F)c3)C1)C2` (single isomer, unassigned) [Compound I-24, 4-Methoxy-5-methyl-6-(2-(1-(6-(trifluoromethyl)pyridazin-4-yl)azetidin-3-yl)acetyl)-6,7-dihydro-5H-pyrrolo[3,4-d]pyrimidine-2-carbonitrile]: the concentration for a half-maximal effect (EC50) on hM4 receptors, at rM4 receptors and on human M4 receptor was at least 2000 nM throughout.

For `COc1nc(C#N)nc2c1CN(C(=O)CC1CN(c3ccnc(C(F)(F)F)c3)C1)C2C` (single isomer, unassigned) [Compound I-34, 4-Methoxy-7-methyl-6-(2-(1-(2-(trifluoromethyl)pyridin-4-yl)azetidin-3-yl)acetyl)-6,7-dihydro-5H-pyrrolo[3,4-d]pyrimidine-2-carbonitrile], the values for the EC50 on hM4 receptors, on rM4 receptors and on human M4 receptor were 500 to 2000 nM, at least 2000 nM and 500 to 2000 nM, respectively.

In the case of `Cc1nc2c(c(OC3CC3)n1)CN(C(=O)CC1CN(c3cccnc3)C1)C2` [Compound I-48, 1-(4-Cyclopropoxy-2-methyl-5,7-dihydro-6H-pyrrolo[3,4-d]pyrimidin-6-yl)-2-(1-(pyridin-3-yl)azetidin-3-yl)ethan-1-one], the EC50 on hM4 receptors was 500 to 2000 nM; on rM4 receptors, at least 2000 nM; at human M4 receptor, at least 2000 nM.

Turning to `COc1nc(C)nc2c1CN(C(=O)CC1CN(c3ccnc(C(F)(F)F)c3)C1)C2C` (single isomer, unassigned) [Compound I-63, 1-(4-Methoxy-2,7-dimethyl-5,7-dihydro-6H-pyrrolo[3,4-d]pyrimidin-6-yl)-2-(1-(2-(trifluoromethyl)pyridin-4-yl)azetidin-3-yl)ethan-1-one], the EC50 at hM4 receptors is 500 to 2000 nM; at rM4 receptors it was at least 2000 nM; on human M4 receptor it was 500 to 2000 nM.

Regarding `COc1nc(C#N)nc2c1C(C)N(C(=O)CC1CN(c3cncnc3)C1)C2` (single isomer, unassigned) [Compound I-27, 4-Methoxy-5-methyl-6-(2-(1-(pyrimidin-5-yl)azetidin-3-yl)acetyl)-6,7-dihydro-5H-pyrrolo[3,4-d]pyrimidine-2-carbonitrile], the EC50 on hM4 receptors was at most 100 nM; on rM4 receptors it was 500 to 2000 nM; on human M4 receptor, at least 2000 nM.

In the case of `COc1nc2c(c(OC)n1)C(C)N(C(=O)CC1CN(c3ccnc(C(F)(F)F)c3)C1)C2` (racemic) [Compound I-67, 1-(2,4-Dimethoxy-5-methyl-5,7-dihydro-6H-pyrrolo[3,4-d]pyrimidin-6-yl)-2-(1-(2-(trifluoromethyl)pyridin-4-yl)azetidin-3-yl)ethan-1-one], the half-maximal effective concentration (EC50) is 100 to 500 nM on hM4 receptors, 500 to 2000 nM on rM4 receptors and at most 100 nM on human M4 receptor.

Regarding `COc1nc(C#N)nc2c1C(C)N(C(=O)CC1CN(c3ccc(C#N)cc3)C1)C2` (single isomer, unassigned) [Compound I-23, 6-(2-(1-(4-Cyanophenyl)azetidin-3-yl)acetyl)-4-methoxy-5-methyl-6,7-dihydro-5H-pyrrolo[3,4-d]pyrimidine-2-carbonitrile], the EC50 is at most 100 nM at hM4 receptors, 100 to 500 nM at rM4 receptors and at most 100 nM at human M4 receptor.

With `COc1nc2c(c(C3CCC3)n1)CN(C(=O)CC1CN(c3ccnc(C(F)(F)F)c3)C1)C2` [Compound I-74, 1-(4-Cyclobutyl-2-methoxy-5,7-dihydro-6H-pyrrolo[3,4-d]pyrimidin-6-yl)-2-(1-(2-(trifluoromethyl)pyridin-4-yl)azetidin-3-yl)ethan-1-one], the EC50 at hM4 receptors, at rM4 receptors and on human M4 receptor was at least 2000 nM in each case.
